The Ki is a measure of affinity in units of concentration, obtained from inhibition or displacement. Lower therefore signals tighter binding.

Among the data in BindingDB's records for doi:10.1016/S1074-5521(99)80084-2 (Institute of Genetics and Molecular and Cellular Biology …, 1999) are Ki values, retold here.

Experiment [1] deals with T1, Retinoic acid receptor alpha [200-419] (Homo sapiens, UniProt P10276).
T1 construct: 200-419
T1 sequence (P10276 whole entry): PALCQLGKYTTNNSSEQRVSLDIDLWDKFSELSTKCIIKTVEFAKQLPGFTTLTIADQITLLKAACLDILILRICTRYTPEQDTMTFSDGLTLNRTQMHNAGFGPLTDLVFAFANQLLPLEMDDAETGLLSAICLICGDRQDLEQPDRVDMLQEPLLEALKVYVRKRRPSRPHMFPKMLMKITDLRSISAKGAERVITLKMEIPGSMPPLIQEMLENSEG
Put plainly: Competitive Assay. The settings on record: pH 8; 4 °C. As to the method: (§1) Competitive assay were perform with 5nM tritiated all-trans retinoic acid (t-RA; 5nM) with or without 100-fold excess of non-radioactive t-RA (500nM).

Experiment [2] concerns the target T2, Retinoic acid receptor alpha [200-419]/gamma [183-417] (Homo sapiens, UniProt P10276+P13631).
T2 construct: 200-419; 183-417
T2 sequence (P13631 whole entry): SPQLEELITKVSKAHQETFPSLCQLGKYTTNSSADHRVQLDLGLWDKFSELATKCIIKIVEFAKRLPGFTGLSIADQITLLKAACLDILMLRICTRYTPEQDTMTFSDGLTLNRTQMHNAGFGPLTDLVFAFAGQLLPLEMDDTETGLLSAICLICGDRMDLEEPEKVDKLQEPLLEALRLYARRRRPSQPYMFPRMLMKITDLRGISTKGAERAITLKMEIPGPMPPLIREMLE
T2 sequence (P10276 whole entry): T1 sequence (P10276 whole entry)
Briefly: Competitive Assay. The conditions noted are these: pH 8; 4 °C. As to the method: as §1

Regarding `CC1(C)CC=C(c2cnc3ccccc3c2)c2cc(C(=O)Nc3ccc(C(=O)O)cc3)ccc21` [BMS614], the Ki amounted to 2.5 nM in experiment [1] and 1 nM in experiment [2].

For the compound `CC1(C)C(=O)C(C)(C)c2cc(C(=O)Nc3ccc(C(=O)O)cc3)ccc21` [BMS753], the inhibition constant (Ki) worked out at 2 nM in experiment [1] and 1 nM in experiment [2].
